Data published in publication PMC6359713, “A Novel Dipeptidyl Peptidase IV Inhibitory Tea Peptide Improves Pancreatic β-Cell Function and Reduces α-Cell Proliferation in Streptozotocin-Induced Diabetic Mice” (International Journal of Molecular Sciences, 2019).
“Also recorded” adds a separate entry of the source.

Tests used:
[1] = Plasma insulin in STZ-induced hyperglycemic mice; type: in vivo, mouse (male ICR); settings: for Blood insulin level: peptide II 400 mg/kg (n = 7) or sitagliptin 4 mg/kg (n = 6), mouse ELISA, STZ control 9.79 ± 3.62 mU/L, mean ± SD
Procedure: (§1) Male ICR mice at the age of four weeks were obtained from the Laboratory Animal Center of Zhejiang University (Hangzhou, China) and housed under a 12 h light/dark cycle with free access to food and water. The animal protocol was approved by the Committee on the Ethics of Animal Experiments of Zhejiang University (Permit Number: SYXK 2018-0001, 3 January 2018), and all experiments were performed in accordance with Zhejiang University Laboratory Animal Center Guidelines and the Regulations for Laboratory Animals Care and Usage. The mice were divided into four groups: non-STZ, STZ, STZ plus sitagliptin, and STZ plus peptide II. The mice were injected with STZ (50 mg/kg) dissolved into sodium citrate buffer (pH 4.5) for three successive days to induce hyperglycemia. Every group contained 10 mice. […] The levels of HbA1c were measured using an automatic analyzer MQ-2000pt produced by Medconn Medical Technology Co. (Shanghai, China). Plasma insulin, glucagon, GLP-1, and DPP-IV concentrations were measured using a mouse ELISA kit (Shanghai Lengton Bioscience Co., Ltd., Shanghai, China).

pancreatic beta-cells = experiment: Islet beta-cell (insulin-positive) area and function in STZ-treated mice, immunohistochemistry; type: in vivo, mouse (male ICR); settings: gavage daily; for Beta-cell area: peptide II 400 mg/kg (n = 7) or sitagliptin 4 mg/kg (n = 6), day 57, insulin-positive area per islet area
Procedure: as §1, with “pancreases” for “levels of HbA1c”, “resected immediately after the mice were sacrificed and fixed in 4% (w/v) formaldehyde. The immunohistochemistry procedures were performed according to Y. Takeda et al.. The stained sections were observed by an inverted fluorescence microscopy (NIKON ECLIPSE TI-SR; Nikon Corporation, Tokyo, Japan), and digital images were collected” for “measured”, “Nikon imaging system (NIKON DS-U3).” for “an automatic analyzer MQ-2000pt produced by Medconn Medical Technology Co. (Shanghai, China). Plasma insulin, glucagon, GLP-1, and DPP-IV concentrations were measured using a mouse ELISA kit (Shanghai Lengton Bioscience Co., Ltd., Shanghai, China).”

[2] = Plasma glucagon in STZ-induced hyperglycemic mice; type: in vivo, mouse (male ICR); settings: peptide II 400 mg/kg or sitagliptin 4 mg/kg, gavage daily, day 57, vs STZ control
Procedure: as §1

pancreatic alpha-cells = experiment: Islet alpha-cell (glucagon-positive) area in STZ-treated mice, immunohistochemistry; type: in vivo, mouse (male ICR); settings: gavage daily; for Alpha-cell area / proliferation: peptide II 400 mg/kg (n = 7) or sitagliptin 4 mg/kg (n = 6), day 57, vs STZ control
Procedure: as §1, with “pancreases” for “levels of HbA1c”, “resected immediately after the mice were sacrificed and fixed in 4% (w/v) formaldehyde. The immunohistochemistry procedures were performed according to Y. Takeda et al.. The stained sections were observed by an inverted fluorescence microscopy (NIKON ECLIPSE TI-SR; Nikon Corporation, Tokyo, Japan), and digital images were collected” for “measured”, “Nikon imaging system (NIKON DS-U3).” for “an automatic analyzer MQ-2000pt produced by Medconn Medical Technology Co. (Shanghai, China). Plasma insulin, glucagon, GLP-1, and DPP-IV concentrations were measured using a mouse ELISA kit (Shanghai Lengton Bioscience Co., Ltd., Shanghai, China).”

[3] = HbA1c in STZ-induced hyperglycemic mice; type: in vivo, mouse (male ICR); settings: gavage daily, 57 days
Procedure: as §1

[4] = Blood GLP-1 in STZ-induced hyperglycemic mice; type: in vivo, mouse (male ICR); settings: gavage daily; for GLP-1 concentration vs STZ control, significance / GLP-1 concentration in blood: day 57; for GLP-1 concentration in blood: peptide II 400 mg/kg (n = 7) or sitagliptin 4 mg/kg (n = 6), mouse ELISA, STZ control 9.85 ± 1.96, normal control 15.52 ± 3.17 pmol/L, mean ± SD; for Increase in GLP-1 concentration vs STZ control: peptide II 400 mg/kg or sitagliptin 4 mg/kg, after 57 days
Procedure: as §1

DPP-IV [5] = target: T1, DPP-IV (Homo sapiens, UniProt P27487); experiment: Enzyme kinetics, Lineweaver-Burk plot, mode of inhibition; type: biochemical; settings: peptide II 0, 1.02 and 2.04 mM; Gly-Pro pNA 0.29-4.64 mM; Tris-HCl pH 7.6, 37 °C, 60 min, 405 nm
T1 construct: purchased Sigma-Aldrich D4943-1VL; host or cells: baculovirus-infected Sf9 insect cells
Procedure: The initial rate of hydrolysis of the substrate Gly-Pro p-nitroanilide by DPP-IV was measured using substrate concentrations of 0.29, 0.58, 1.16, 2.32, and 4.64 mM (final assay concentrations) in the absence (100 mM Tris-HCl buffer, pH 7.6) and presence of different concentrations of the peptide II (1.02 and 2.04 mM, respectively). The substrate (50 μL), with or without an inhibitor (50 μL), was pre-incubated at 37 °C for 15 min, and the reaction was started by the addition of 100 μL of the DPP-IV enzyme (final concentration: 1.9 U/L). The absorbance of the released p-nitroanilide was monitored at 37 °C and 405 nm for 60 min using a microplate reader (Synergy H1, BioTek Instruments Inc.). Lineweaver–Burk plots of DPP-IV activity in the absence and presence of peptide II were created to show the modes of inhibition.

DPP-IV [6] = target: T1, DPP-IV; experiment: DPP-IV inhibitory assay (Gly-Pro p-nitroanilide); type: biochemical; settings: n = 3; for DPP-IV inhibition, comparison among peptides I-IV: 62.5-1500 μg/mL
Source text: The enzyme, human recombinant DPP-IV (Lot: D4943-1VL), expressed in baculovirus-infected S/9 cells, the substrate, Gly-Pro p-nitroanilide (Gly-Pro pNA; Lot: G0513), and streptozotocin (STZ; Lot: V900890) were purchased from Sigma-Aldrich (St. Louis, MO, USA). […] Other reagents, such as Folin–Ciocalteu (Lot: 73104861), gallic acid (Lot: XW01499171), and Coomassie Blue R-250 (Lot: 71011381) were purchased from Sinopharm Chemical Reagent Co., Ltd. (Shanghai, China). Lapsang souchon (LS), a typical Chinese black tea, was obtained from a tea market in Hangzhou.
The DPP-IV inhibitory activities of the substance after ultrafiltration and the peptides identified (synthesized by Chinese Peptide Company, Hangzhou, China; purity of 96–97%) were evaluated. The DPP-IV inhibition assay was performed as described by Velarde-Salcedo et al., with slight modifications. The assay was performed in 96-well microplates, and 100 μL of enzyme (final concentration 1.9 U/L) was preincubated with the samples (the concentrated ultra-filtrate mentioned above and the synthesized peptide, with concentrations from 62.5–1500 μg/mL) at 37 °C for 15 min prior to the initiation of the reaction, by adding 50 μL of Gly-Pro p-nitroanilide (final concentration 0.29 mM). The final volume of the reaction system was 200 μL, and the reaction was conducted in 100 mM Tris-HCl buffer (pH 7.6). The absorbance was obtained at 405 nm in a microplate reader (Synergy H1, BioTek Instruments Inc., Winooski, VT, USA), after incubation at 37 °C for 1 h.

T1 sequence (P27487 whole entry): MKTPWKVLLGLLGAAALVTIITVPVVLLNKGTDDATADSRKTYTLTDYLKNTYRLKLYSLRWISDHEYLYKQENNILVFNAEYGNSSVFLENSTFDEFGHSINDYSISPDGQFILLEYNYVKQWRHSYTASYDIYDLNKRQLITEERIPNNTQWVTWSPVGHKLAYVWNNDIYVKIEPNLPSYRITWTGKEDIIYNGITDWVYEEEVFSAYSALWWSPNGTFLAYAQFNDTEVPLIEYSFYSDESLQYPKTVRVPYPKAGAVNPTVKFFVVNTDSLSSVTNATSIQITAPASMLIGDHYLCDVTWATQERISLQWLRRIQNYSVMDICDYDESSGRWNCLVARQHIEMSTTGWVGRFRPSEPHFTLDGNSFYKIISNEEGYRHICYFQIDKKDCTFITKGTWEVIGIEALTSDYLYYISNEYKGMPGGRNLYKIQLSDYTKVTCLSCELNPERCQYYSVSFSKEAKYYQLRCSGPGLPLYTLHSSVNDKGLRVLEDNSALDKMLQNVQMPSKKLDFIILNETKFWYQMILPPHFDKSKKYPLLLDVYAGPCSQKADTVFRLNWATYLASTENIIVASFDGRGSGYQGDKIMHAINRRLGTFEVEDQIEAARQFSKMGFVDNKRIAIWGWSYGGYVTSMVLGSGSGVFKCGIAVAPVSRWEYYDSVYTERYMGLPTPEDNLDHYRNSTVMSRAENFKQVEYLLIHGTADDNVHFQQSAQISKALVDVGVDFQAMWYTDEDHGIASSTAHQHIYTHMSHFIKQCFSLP

Row | Compound | Blood insulin level ([1]; gavage daily, day 57) [mU/L] | Beta-cell area (pancreatic beta-cells) | Plasma glucagon levels [2] | Alpha-cell area / proliferation (pancreatic alpha-cells) | GLP-1 concentration vs STZ control, significance [4] | GLP-1 concentration in blood [4] [pmol/L] | Increase in GLP-1 concentration vs STZ control [4] [pmol/L] | DPP-IV inhibition, comparison among peptides I-IV (DPP-IV [6]) | also measured
1 | AGFAGDDAPR [Peptide II] | 42.30 ± 12.64 | not obvious | no amelioration of the glucagon levels | suppressed proliferation of pancreatic alpha-cells; also recorded: lower than that in the STZ control group, but not significantly | significantly higher than that in STZ control | 19.22 ± 6.79 | 9.3 | much higher inhibitory activity at both low and high concentrations; also recorded: the greatest DPP-IV inhibitory activity | Increase of plasma insulin level vs STZ control ([1]; peptide II 400 mg/kg or sitagliptin 4 mg/kg, gavage daily, 57 days): 4.3 fold; Insulin improvement compared with sitagliptin ([1]; peptide II 400 mg/kg vs sitagliptin 4 mg/kg, day 57): improved the insulin levels more effectively than sitagliptin; Beta-cell proliferation / function (pancreatic beta-cells; peptide II 400 mg/kg, 57 days): improved function of pancreatic beta-cells; also recorded: only slight proliferation; HbA1c level vs STZ control ([3]; peptide II 400 mg/kg, n = 7): did not show a significant difference in HbA1c levels compared to STZ control animals; Mode of DPP-IV inhibition (DPP-IV [5]): competitive inhibitory mode; DPP-IV enzyme activity inhibited (DPP-IV [6]; 1000 μg/mL synthesized peptide, Tris-HCl pH 7.6, 37 °C, preincubation 15 min, 1 h, 405 nm): ~50%
2 | N[C@@H](CC(=O)N1CCn2c(nnc2C(F)(F)F)C1)Cc1cc(F)c(F)cc1F [sitagliptin, reference compound] | 27.35 ± 5.65 | not obvious | no amelioration of the glucagon levels | suppressed | without any significant difference compared with the STZ control | 12.57 ± 3.38 | 2.7 |  | Decrease of alpha-cell area vs STZ-treated mice (pancreatic alpha-cells; sitagliptin 4 mg/kg, day 57, glucagon-positive area per islet area, n = 6): 37.8%; HbA1c level ([3]; sitagliptin 4 mg/kg, n = 6, STZ control 7.30 ± 0.70%, mean ± SD): 5.98 ± 1.63%
3 | IDESLR [Peptide III] |  |  |  |  |  |  |  |  | DPP-IV inhibition (DPP-IV [6]; 1500 μg/mL, compared among peptides I-IV): the lowest activity; DPP-IV inhibition (DPP-IV [6]; concentration below 1000 μg/mL): almost no inhibition
4 | IQDKEGIPPDQQR [IV] |  |  |  |  |  |  |  | surpassed by peptide II with increasing concentration | 
5 | QTDEYGNPPR [Peptide I] |  |  |  |  |  |  |  | lower than peptide IV, but higher than peptide III | 
